Tested on: c-Myc
Assay: c-Myc immunofluorescence assay
Assay type: cell-based, human
Settings: A549 cells, 24 hours treatment, anti-c-Myc immunofluorescence
Method in brief: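 A549 cells grown 48 h, exposed 24 h to rising compound concentrations, then fixed, permeabilised and stained for c-Myc plus DAPI. Nuclear-segmented c-Myc fluorescence quantified by high-content imaging at 20×; EC50 from logistic dose–response fits.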

SMILES | Myc Efficacy (−LogEC50)
CNC(=O)c1ccc(-c2cn3c(n2)sc2cc(C(=O)NCC(C)(C)N4CCOCC4)ccc23)cc1 [compound 244, N-(2-methyl-2-morpholinopropyl)-2-(4-(methylcarbamoyl)phenyl) benzo[d]imidazo[2,1-b] thiazole-7-carboxamide] | − (− ≤3)
CNC(=O)c1ccc(-c2cn3c(n2)sc2cc(C(=O)N[C@H]4C[C@@H](OC)C4)ccc23)cc1 [compound 245, N-((1s,3s)-3-methoxycyclobutyl)-2-(4-(methylcarbamoyl)phenyl) benzo[d]imidazo[2,1-b] thiazole-7-carboxamide] | − (− ≤3)
CNC(=O)c1ccc(-c2cn3c(n2)sc2cc(C(=O)N[C@H]4C[C@@H](NC)C4)ccc23)cc1 [compound 246, N-((1s,3s)-3-(methylamino)cyclobutyl)-2-(4-(methylcarbamoyl)phenyl) benzo[d]imidazo[2,1-b] thiazole-7-carboxamide] | + (+ >3 and <5)
CNC(=O)c1ccc(-c2cn3c(n2)sc2cc(C(=O)N[C@H]4C[C@H](NC)C4)ccc23)cc1 [compound 247, N-((1r,3r)-3-(methylamino)cyclobutyl)-2-(4-(methylcarbamoyl)phenyl) benzo[d]imidazo[2,1-b] thiazole-7-carboxamide] | − (− ≤3)
Cc1cccc(-c2cn3c(n2)sc2cc(C(=O)NCCCN4CC5CC4CN5C)ccc23)c1 (stereo not shown) [compound 248, N-(3-(5-methyl-2,5-diazabicyclo[2.2.1]heptan-2-yl)propyl)-2-(m-tolyl)benzo[d]imidazo[2,1-b]thiazole-7-carboxamide] | + (+ >3 and <5)
CNC(=O)c1ccc(-c2cn3c(n2)sc2cc(C(=O)NCCCN4CC5CC4CN5C)ccc23)cc1 (stereo not shown) [compound 249, N-(3-(5-methyl-2,5-diazabicyclo[2.2.1]heptan-2-yl)propyl)-2-(4-(methylcarbamoyl)phenyl) benzo[d]imidazo[2,1-b]thiazole-7-carboxamide] | − (− ≤3)
CNC(=O)c1ccc(-c2cn3c(n2)sc2cc(C(=O)N4CCN(CC(N)=O)CC4)ccc23)cc1 [compound 250, 4-(7-(4-(2-amino-2-oxoethyl)piperazine-1-carbonyl)benzo[d]imidazo [2,1-b]thiazol-2-yl)-N-methylbenzamide] | + (+ >3 and <5)
CNC(=O)c1ccc(-c2cn3c(n2)sc2cc(C(=O)NCC4(N)CC4)ccc23)cc1 [compound 251, N-((1-aminocyclopropyl)methyl)-2-(4-(methylcarbamoyl)phenyl) benzo[d]imidazo[2,1-b]thiazole-7-carboxamide] | − (− ≤3)
CNC(=O)c1ccc(-c2cn3c(n2)sc2cc(C(=O)NCC4CC(=O)N(C)C4)ccc23)cc1 (stereo not shown) [compound 252, N-((1-methyl-5-oxopyrrolidin-3-yl)methyl)-2-(4-(methylcarbamoyl)phenyl) benzo[d]imidazo[2,1-b]thiazole-7-carboxamide] | + (+ >3 and <5)
CNC(=O)c1ccc(-c2cn3c(n2)sc2cc(C(=O)N[C@H]4[C@@H]5CNC[C@@H]54)ccc23)cc1 [compound 253, N-((1R,5S,6s)-3-azabicyclo[3.1.0]hexan-6-yl)-2-(4-(methylcarbamoyl)phenyl) benzo[d]imidazo[2,1-b]thiazole-7-carboxamide] | + (+ >3 and <5)
CNC(=O)c1ccc(-c2cn3c(n2)sc2cc(C(=O)NCC4CCC(=O)N4C)ccc23)cc1 (stereo not shown) [compound 254, N-((1-methyl-5-oxopyrrolidin-2-yl)methyl) 2-(4-(methylcarbamoyl)phenyl) benzo[d]imidazo[2,1-b]thiazole-7-carboxamide] | + (+ >3 and <5)
CNC(=O)c1ccc(-c2cn3c(n2)sc2cc(C(=O)NCC(=O)NCC(F)(F)F)ccc23)cc1 [compound 255, 2-(4-(methylcarbamoyl)phenyl)-N-(2-oxo-2-((2,2,2-trifluoroethyl)amino)ethyl) benzo[d]imidazo[2,1-b]thiazole-7-carboxamide] | − (− ≤3)
CNC(=O)c1ccc(-c2cn3c(n2)sc2cc(C(=O)NC[C@H](O)c4ccccc4)ccc23)cc1 [compound 256, (R)-N-(2-hydroxy-2-phenylethyl)-2-(4-(methylcarbamoyl)phenyl) benzo[d]imidazo[2,1-b]thiazole-7-carboxamide] | − (− ≤3)
CNC(=O)c1ccc(-c2cn3c(n2)sc2cc(C(=O)NCCC4CCCN4C)ccc23)cc1 (stereo not shown) [compound 257, 2-(4-(methylcarbamoyl)phenyl)-N-(2-(1-methylpyrrolidin-2-yl)ethyl)benzo[d]imidazo [2,1-b]thiazole-7-carboxamide] | ++ (++ ≥5 and <6)
CNC(=O)c1ccc(-c2cn3c(n2)sc2cc(C(=O)NC4CC(O)C4(C)C)ccc23)cc1 (stereo not shown) [compound 258, N-(3-hydroxy-2,2-dimethylcyclobutyl)-2-(4-(methylcarbamoyl)phenyl) benzo[d]imidazo[2,1-b]thiazole-7-carboxamide] | + (+ >3 and <5)
CNC(=O)c1ccc(-c2cn3c(n2)sc2cc(C(=O)NCC4CC4(F)F)ccc23)cc1 (stereo not shown) [compound 259, N-((2,2-difluorocyclopropyl)methyl)-2-(4-(methylcarbamoyl)phenyl) benzo[d]imidazo[2,1-b]thiazole-7-carboxamide] | + (+ >3 and <5)

SMILES | Myc Efficacy (−LogEC50)
CNC(=O)c1ccc(-c2cn3c(n2)sc2cc(C(=O)NCCC4(O)CCCC4)ccc23)cc1 [compound 260, N-(2-(1-hydroxycyclopentyl)ethyl)-2-(4-(methylcarbamoyl)phenyl) benzo[d]imidazo[2,1-b]thiazole-7-carboxamide] | − (− ≤3)
CNC(=O)c1ccc(-c2cn3c(n2)sc2cc(C(=O)NCC4(C)CC4)ccc23)cc1 [compound 261, 2-(4-(methylcarbamoyl)phenyl) N-((1-methylcyclopropyl)methyl) benzo[d]imidazo[2,1-b]thiazole-7-carboxamide] | − (− ≤3)
CNC(=O)c1ccc(-c2cn3c(n2)sc2cc(C(=O)NCCN4CCCCC4C)ccc23)cc1 (stereo not shown) [compound 262, 2-(4-(methylcarbamoyl)phenyl) N-(2-(2-methylpiperidin-1-yl)ethyl)benzo[d]imidazo [2,1-b]thiazole-7-carboxamide] | + (+ >3 and <5)
CNC(=O)c1ccc(-c2cn3c(n2)sc2cc(C(=O)N[C@H]4c5ccccc5C[C@H]4O)ccc23)cc1 [compound 263, N-((1S,2R)-2-hydroxy-2,3-dihydro-1H-inden-1-yl)-2-(4-(methylcarbamoyl)phenyl) benzo[d]imidazo[2,1-b]thiazole-7-carboxamide] | − (− ≤3)
CCCN1CCC(NC(=O)c2ccc3c(c2)sc2nc(-c4ccc(C(=O)NC)cc4)cn23)CC1 [compound 264, 2-(4-(methylcarbamoyl)phenyl)-N-(1-propylpiperidin-4-yl)benzo[d]imidazo[2,1-b]thiazole-7-carboxamide] | +++ (+++ ≥6)
Cc1cccc(-c2cn3c(n2)sc2cc(NC(=O)N4CCNCC4)ccc23)c1 [compound 265, N-(2-(m-tolyl)benzo[d]imidazo[2,1-b]thiazol-7-yl)piperazine-1-carboxamide] | + (+ >3 and <5)
CCN(CC)CCCC(=O)Nc1ccc2c(c1)sc1nc(-c3cccc(C)c3)cn12 [compound 266, 4-(diethylamino)-N-(2-(m-tolyl)benzo[d]imidazo[2,1-b]thiazol-7-yl)butanamide] | + (+ >3 and <5)
CCN(CC)CCNC(=O)Nc1ccc2c(c1)sc1nc(-c3cccc(C)c3)cn12 [compound 267, 1-(2-(diethylamino)ethyl)-3-(2-(m-tolyl)benzo[d]imidazo[2,1-b]thiazol-7-yl)urea] | + (+ >3 and <5)
CCN(CC)CCCNC(=O)c1ccc2c(c1)sc1nc(-c3ccc(-c4ncc[nH]4)cc3)cn12 [compound 268, 2-(4-(1H-imidazol-2-yl)phenyl)-N-(3-(diethylamino)propyl) benzo[d]imidazo[2,1-b] thiazole-7-carboxamide] | + (+ >3 and <5)
CNC(=O)c1ccc(-c2cn3c(n2)sc2cc(C(=O)NC4CC(N(C)C)C4)ccc23)cc1 (stereo not shown) [compound 269, N-(3-(dimethylamino)cyclobutyl)-2-(4-(methylcarbamoyl)phenyl) benzo[d]imidazo[2,1-b]thiazole-7-carboxamide] | + (+ >3 and <5)
CNC(=O)c1ccc(-c2cn3c(n2)sc2cc(C(=O)NC4CCCC(N)C4)ccc23)cc1 (stereo not shown) [compound 270, N-(3-aminocyclohexyl)-2-(4-(methylcarbamoyl)phenyl) benzo[d]imidazo[2,1-b]thiazole-7-carboxamide] | + (+ >3 and <5)
CNC(=O)c1ccc(-c2cn3c(n2)sc2cc(C(=O)NCCCN4CCCC4CO)ccc23)cc1 (stereo not shown) [compound 271, N-(3-(2-(hydroxymethyl)pyrrolidin-1-yl)propyl)-2-(4-(methylcarbamoyl)phenyl) benzo[d]imidazo[2,1-b]thiazole-7-carboxamide] | + (+ >3 and <5)
CNC(=O)c1ccc(-c2cn3c(n2)sc2cc(C(=O)NCC4CC5(CNC5)C4)ccc23)cc1 [compound 272, N-((2-azaspiro[3.3]heptan-6-yl)methyl)-2-(4-(methylcarbamoyl)phenyl) benzo[d]imidazo[2,1-b]thiazole-7-carboxamide] | − (− ≤3)
CNC(=O)c1ccc(-c2cn3c(n2)sc2cc(C(=O)NC[C@H]4CC[C@H](O)CC4)ccc23)cc1 [compound 273, N-(((1r,4r)-4-hydroxycyclohexyl)methyl)-2-(4-(methylcarbamoyl)phenyl) benzo[d]imidazo[2,1-b]thiazole-7-carboxamide] | − (− ≤3)
CNC(=O)c1ccc(-c2cn3c(n2)sc2cc(C(=O)N[C@H](C)C4CC4)ccc23)cc1 [compound 274, (R)-N-(1-cyclopropylethyl)-2-(4-(methylcarbamoyl)phenyl) benzo[d]imidazo[2,1-b]thiazole-7-carboxamide] | + (+ >3 and <5)
